Results reported in article PMC8717366, “Synthesis and Pharmacological Characterization of Visabron, a Backbone Cyclic Peptide Dual Antagonist of α4β1 (VLA-4)/α9β1 Integrin for Therapy of Multiple Sclerosis” (JACS Au, 2021).
Numbered stars: 1 amine (or outer) side, 2 acyl side, 3 side chain; on linkers, the order of the positions; unused ones are H or OH. Bridge positions count the residues as written; N and C are the ends. Square brackets hold non-standard residues; d marks the D form. Peptide text beside a SMILES is read from it. N(2-Aminoethyl)Gly = O=C(CN(CCN[*:3])[*:1])[*:2]; CO = O=C([*:1])[*:2]; Nlys = NCCCCNCC(=O)O

Assays:
[1] = system: experimental autoimmune encephalomyelitis (EAE); assay: MOG-induced EAE in C57BL/6 mice; type: in vivo, C57Bl/6 female mice
Procedure: EAE was induced in C57bl/6 mice by immunization with MOG/CFA and injection of pertussis toxin as described in the Experimental Section. The body weight, neurological scores, and disease incidence were monitored daily for 35 days. Immunized mice (n = 10–14 in each group) were treated (i.p. injection) at time points indicated by arrows. Histology was performed on day 35 on all groups. Data shown are the mean ± SEM, evaluated by the nonparametric Kruskal–Wallis test followed by a Dunn’s postanalysis. All p-values <0.05 were considered statistically significant. (A) Neurological clinical score. Visabron c (4–4) (green) at a cumulative dose of 25 mg/kg (5 mg/kg every other day, for 8 days) and natalizumab (orange) at a cumulative dose of 120 mg/kg (24 mg/kg every other day, for 8 days). […] (E) Dose–response of treatment with visabron c (4–4). Inset: Mean neurological score of the different treatment groups at disease onset (days 15–17). […] (F) Inflammatory infiltrates (blue) in the spinal cord were evaluated by cell counting in H&E stained slices.
C57Bl/6 female mice, 8 weeks old, obtained from the Harlan animal breeding center were used in the study and were maintained in the SPF unit of the Faculty of Medicine. EAE was induced by s.c. injection of 0.2 mL/mouse emulsion containing 200 μg of MOG35–55 peptide in saline and an equal volume of 5 mg/mL Complete Freund’s Adjuvant (CFA) containing 1 mg/mL heat-killed M. tuberculosis (H37Ra; Difco Laboratories, Detroit, MI) . The emulsification was made from equal parts of oil and liquid portions (1:1) in two syringes connected to each other with Leur lock, transferred to an insulin syringe, and 0.2 mL was injected to the right flank of each mouse. On the day of immunization, pertussis toxin (200 ng/mL) was injected i.p. at a volume dose of 0.2 mL/mouse. The injection of the pertussis toxin (i.p) was repeated after 48 h to boost the immune recognition reaction. From day four, natalizumab and Visabron c (4–4) were injected i.p. each other day, five times, and the weight, the neurological score and the disease incidence of the mice were monitored until 35 days after immunization. EAE scoring system: mice were observed daily for the appearance of neurological symptoms, which were scored as follows: 0, asymptomatic; 1, partial loss of tail tonicity; 1.5, limp tail; 2, hind limb weakness (right reflex); 3, ataxia; 4, early paralysis; 5, full paralysis; and 6, moribund or dead. The disease incidence was calculated as a percentage of the ratio of the number of new diseased mice per number of living mice at each time-point. In experiments to estimate cell infiltration in the spinal cord at 35 days postimmunization, the mice were euthanized by cervical dislocation and lumbar spinal cords were collected.

[2] = Immunogenicity, antibody titer by ELISA in BALB/c mice; type: in vivo, BALB/c male mice; conditions: 40 days, Figure 8
Procedure: Figure 8 Antibody titer test in BALB/c mice, 40 days post intraperitoneal administration with natalizumab (18 mg/kg), visabron c (2–2) (150 mg/kg) alone, and administered together with Complete Freund’s Adjuvant (visabron c (2–2) + CFA), as compared to preimmune control serum. The results represent the mean ± SEM (n = 6) of optical absorbance (OD 490 nm) in ELISA. *p ≤ 0.01 compared to control.
BALB/c male mice, aged 60 days (22 gr) were divided into three groups each containing six mice. The mice were immunized intraperitoneal with 0.5 mL of Visabron c (2–2) (150 mg/kg), 0.25 mL Visabron c (2–2) (150 mg/kg) + 0.25 mL of Freund‘s complete adjuvant, and 0.25 mL natalizumab (18 mg/kg). After 14 days of the first inoculation, the mice received a booster with 0.5 mL of the preparations mentioned above. To verify the presence of antibodies against visabron c (2–2) or natalizumab, the serum collected from mice tail blood was tested 40 days after the first inoculation by indirect ELISA using visabron c (2–2) or natalizumab antigens immobilized to the plate (25 μg per well, diluted in 20 mM carbonate buffer, pH 9.6 overnight incubated at 4 °C). […] The reaction was stopped with 12.5% H2SO4, and absorbance was measured at 490 nm. The results were considered significant when the absorbance was at least two times higher than that obtained with the preimmune serum.

EGFR = target: T1, EGFR (Homo sapiens, UniProt P00533); assay: PhosphoSens CSox-based kinase assay, EGFR; type: biochemical; conditions: 1 mM, but not 0.1 mM; Figure 7
T1 construct: purchased BPS BS 40187
T1 sequence (P00533 25-1210): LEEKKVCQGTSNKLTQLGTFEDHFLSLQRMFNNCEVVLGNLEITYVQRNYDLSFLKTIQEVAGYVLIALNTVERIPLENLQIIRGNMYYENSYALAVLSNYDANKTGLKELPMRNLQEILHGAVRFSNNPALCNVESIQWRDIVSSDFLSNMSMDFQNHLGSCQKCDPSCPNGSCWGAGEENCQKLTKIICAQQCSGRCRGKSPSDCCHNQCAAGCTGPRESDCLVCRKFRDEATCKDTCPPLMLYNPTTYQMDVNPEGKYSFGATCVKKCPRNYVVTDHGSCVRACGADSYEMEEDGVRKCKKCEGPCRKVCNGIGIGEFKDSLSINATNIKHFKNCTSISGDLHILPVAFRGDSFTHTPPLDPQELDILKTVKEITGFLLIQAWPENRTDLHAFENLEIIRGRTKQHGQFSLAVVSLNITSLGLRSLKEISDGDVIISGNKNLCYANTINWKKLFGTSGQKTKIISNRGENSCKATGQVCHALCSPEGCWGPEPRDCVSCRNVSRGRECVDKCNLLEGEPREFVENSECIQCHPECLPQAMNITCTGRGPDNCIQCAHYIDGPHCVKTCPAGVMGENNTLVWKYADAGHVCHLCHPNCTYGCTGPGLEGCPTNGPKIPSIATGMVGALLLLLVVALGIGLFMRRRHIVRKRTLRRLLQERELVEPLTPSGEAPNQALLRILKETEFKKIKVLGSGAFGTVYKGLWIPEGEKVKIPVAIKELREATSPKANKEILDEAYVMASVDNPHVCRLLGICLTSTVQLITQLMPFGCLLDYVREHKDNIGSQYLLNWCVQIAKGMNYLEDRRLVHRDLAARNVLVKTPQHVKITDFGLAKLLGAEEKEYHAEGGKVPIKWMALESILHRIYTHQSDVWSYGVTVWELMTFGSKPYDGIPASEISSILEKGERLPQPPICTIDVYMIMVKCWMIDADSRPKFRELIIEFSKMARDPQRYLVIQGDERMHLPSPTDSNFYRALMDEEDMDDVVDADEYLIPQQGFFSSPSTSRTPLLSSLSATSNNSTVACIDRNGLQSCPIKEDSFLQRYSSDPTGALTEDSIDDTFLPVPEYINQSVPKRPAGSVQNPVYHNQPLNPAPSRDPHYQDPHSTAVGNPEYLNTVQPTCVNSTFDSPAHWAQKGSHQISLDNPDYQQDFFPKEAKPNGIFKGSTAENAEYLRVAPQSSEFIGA
Procedure: (§1) Kinase activity was measured using the PhosphoSenstechnology (AssayQuant Technologies Inc., Marlborough, MA) as detailed in the Supporting Information. […]
(§2) Visabron c (4-4) safety by in vitro evaluation using PhosphoSens - CSox based kinase assays:
(§3) A powerful method was used to measure the activity of recombinant protein kinases using a homogeneous and continuous (kinetic) format, where the level of chelation-enhanced fluorescence (CHEF) that is directly proportional to the amount of phosphorylated, real-time sensors consisting of sulfonamido-oxine (Sox) chromophore, linked to a peptide or protein substrates of selective kinases 6. […]
(§4) Kinase activity measurements: Kinase activity was measured continuously using the PhosphoSens® technology (AssayQuant Technologies Inc., Marlborough, MA) according to the manufacturers’ recommendations. This one-step homogeneous assay format uses chelation -enhanced fluorescence via optimized substrate sensors containing the unnatural fluorogenic amino -acid Sox. […]
(§5) Final reaction conditions : Protein kinase activity was determined in 54 mM HEPES, pH 7.5, 1 mM ATP, 1.2 mM DTT, 0.012% Brij-35, 0.52 mM EGTA, 10 mM MgCl2, 1% glycerol, 0.2mg/ml BSA, and 15 μM Sox -based sensor. […]

LynA = target: T2, LynA (Homo sapiens, UniProt P07948); assay: PhosphoSens CSox-based kinase assay, LynA; type: biochemical; conditions: 1 mM, but not 0.1 mM; Figure 7
T2 construct: purchased Carna 08-171
T2 sequence (P07948 whole entry): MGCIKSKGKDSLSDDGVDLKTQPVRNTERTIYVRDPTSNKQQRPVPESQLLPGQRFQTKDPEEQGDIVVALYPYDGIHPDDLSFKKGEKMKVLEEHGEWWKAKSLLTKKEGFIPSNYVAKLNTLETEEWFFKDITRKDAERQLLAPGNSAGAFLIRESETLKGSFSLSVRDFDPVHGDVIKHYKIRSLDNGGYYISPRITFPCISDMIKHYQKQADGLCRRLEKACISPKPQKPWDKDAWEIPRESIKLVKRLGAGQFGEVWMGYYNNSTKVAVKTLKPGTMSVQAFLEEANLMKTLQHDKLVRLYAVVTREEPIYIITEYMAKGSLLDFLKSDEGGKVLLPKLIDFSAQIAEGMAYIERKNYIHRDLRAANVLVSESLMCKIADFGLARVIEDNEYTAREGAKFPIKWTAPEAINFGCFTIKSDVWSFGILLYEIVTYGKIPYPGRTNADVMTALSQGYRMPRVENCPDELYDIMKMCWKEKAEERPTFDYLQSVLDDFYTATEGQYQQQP
Procedure: as §1, §2, §3, §4, §5

natalizumab: clinical-grade monoclonal antibody anti-α4β1 produced by Biogen Co. [reference compound]
EAE-associated body weight decrease ([1]; 13–16 to 35 days postimmunization, visabron c (4–4) cumulative 25 mg/kg, natalizumab 120 mg/kg i.p., Figure 3B): significantly decreased
Disease incidence vs EAE disease group ([1]; Figure 3C): lower disease incidence
Cumulative neurological scores vs EAE/PBS group ([1]; at 35 days postimmunization, Figure 3D): significantly decreased
Inflammatory cell infiltration in spinal cord (H&E cell counting) ([1]; day 35, Figure 3F): significantly reduced
Increase in neurological score vs EAE group ([1]; onset (13–16 days) to 35 days postimmunization, i.p., visabron c (4–4) cumulative 25 mg/kg, natalizumab cumulative 120 mg/kg, Figure 3A): significantly lower

CSCC[C@@H]1NC(=O)[C@H]([C@@H](C)O)NC(=O)CN(C(=O)[C@@H](N)CCCCN)CCNC(=O)NCCN(CC(=O)N[C@@H](CC(C)C)C(N)=O)C(=O)[C@H](CC(=O)O)NC(=O)[C@H](CC(C)C)NC1=O [visabron c (2–2)] (H-K[N(2-Aminoethyl)Gly]TMLD[N(2-Aminoethyl)Gly]L-NH2; linker 2-7 via CO)
Antibody production (ELISA vs preimmune serum) ([2]; 150 mg/kg intraperitoneal alone): did not induce antibody production
Antibody production (ELISA vs preimmune serum) ([2]; 150 mg/kg intraperitoneal together with Freund's complete adjuvant): did not induce antibody production

CSCC[C@@H]1NC(=O)[C@H]([C@@H](C)O)NC(=O)CN(C(=O)[C@@H](N)CCCCN)CCCCNC(=O)NCCCCN(CC(=O)N[C@@H](CC(C)C)C(N)=O)C(=O)[C@H](CC(=O)O)NC(=O)[C@H](CC(C)C)NC1=O [visabron c (4–4)] (H-K[Nlys]TMLD[Nlys]L-NH2; linker 2-7 via CO)
inhibition at 1000 µM (EGFR): 25 to 40%
inhibition at 1000 µM (LynA): 25 to 40%
